Experiment [1] deals with T1, human neutrophil elastase (Homo sapiens, UniProt P08246).
T1 sequence (P08246 30-267): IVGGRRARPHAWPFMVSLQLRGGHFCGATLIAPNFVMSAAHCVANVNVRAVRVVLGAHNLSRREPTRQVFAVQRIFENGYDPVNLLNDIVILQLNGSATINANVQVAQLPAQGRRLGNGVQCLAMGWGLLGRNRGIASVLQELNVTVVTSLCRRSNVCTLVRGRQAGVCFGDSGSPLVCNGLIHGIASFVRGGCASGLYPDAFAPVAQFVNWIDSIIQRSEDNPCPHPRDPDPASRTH
Description: Neutrophil Elastase Inhibitor Screening Kit (Sigma MAK213), fluorometric. Format: biochemical. On the set-up: purchased Sigma-Aldrich MAK213. The note with it: for effect on human neutrophil elastase activity measured fluorometrically: FIG. 2, result in words; for Relative inhibition of NE activity (%): 30 min, 37° C. The protocol:
Neutrophil Elastase Inhibitor Screening Kit is available from Sigma-Aldrich, catalogue number MAK213. This kit measures neutrophil elastase activity by detecting the hydrolysis and release of a fluorescent product. It allows for the screening of unknown substances for inhibitory activity and compares with a positive inhibitor control. Cysteamine free base, cysteamine bitartrate, and cystamine dihydrochloride were prepared in the assay buffer provided at four times the final testing concentration and combined with enzyme and substrate as appropriate and as defined in the full protocol. Samples were prepared in 96 well microtiter plates with black well walls. Background fluorescence can be determined by omitting the neutrophil elastase from a sample blank control. Fluorescence was measured at 400ex/505em nm on a Biotek Synergy plate reader over 30 min at an incubation temperature of 37° C. Relative inhibition is determined by the following equations: Slope=(Fluorescence 2−Fluorescence 1)/(Time 2−Time 1)=delta fluorescence/minute % Relative Inhibition=((SlopeEC−SlopeSM)/SlopeEC))×100 Where: SlopeSM=the slope of the sample inhibitor (cysteamine and derivatives) & SlopeEC=the slope of the Enzyme control.

Experiment [2] concerns the target T1, human neutrophil elastase. Description: SDS PAGE of recombinant human neutrophil elastase treated with cysteamine and derivatives. The note with it: FIG. 3; 2.5 μg NE with 2.5 or 5 μg compound, 1 h at 37° C., 8-16% Tris-Glycine SDS gel. The protocol:
FIG. 3: The banding pattern and relative staining intensity of recombinant human neutrophil elastase is altered by the addition of cysteamine bitartrate and cysteamine free base. […] This 8-16% gradient Tri-Glycine SDS gel is loaded with a molecular weight marker and: 1. Recombinant human neutrophil elastase [2.5 μg total]; 2. Recombinant human neutrophil elastase [2.5 μg total] and cysteamine bitartrate [2.5 μg total]; 3. Recombinant human neutrophil elastase [2.5 μg total] and cysteamine bitartrate [5 μg total]; 4. Recombinant human neutrophil elastase [2.5 μg total] and cysteamine free base [2.5 μg total]; 5. Recombinant human neutrophil elastase [2.5 μg total] and cysteamine free base [5 μg total]; 6. Recombinant human neutrophil elastase [2.5 μg total] and cystamine dihydrochloride [2.5 μg total]; 7. Recombinant human neutrophil elastase [2.5 μg total] and cystamine dihydrochloride [5 μg total].
Recombinant proteins were treated with or without cysteamine and its derivatives at the concentrations stated in the figures below for 1 h at 37° C. prior to addition of 2× sample buffer and electrophoretic separation on pre-cast 8-16% tris-glycine SDS polyacrylamide gradient gel (Life Technologies) under a constant voltage of 120V in tris-glycine running buffer until the dye front reached the end of the gel. Samples were not heated prior to loading to minimize denaturation of disulphide bonds on the denaturing gel. Precision Plus (Bio-Rad) prestained protein standards were used alongside samples. After electrophoresis gels were carefully removed from the plastic cassettes and washed in sterile distilled water to remove SDS 3× for 5 min. Protein bands were visualized using coomassie-based Simply Blue™ Safe Stain (Life Technologies) staining for 1 h at room temperature. The gel was washed overnight in sterile distilled water, and for a further hour in fresh water prior to photographing.

Experimental findings from patent US20180344671A1, “Cysteamine as Neutrophil Elastase Inhibitor” (Novabiotics Limited, priority 2017, published 2018) are described below.

With `Cl.Cl.NCCSSCCN` [Cystamine dihydrochloride, cystamine dihydrochloride], the “effect on human neutrophil elastase activity measured fluorometrically” value (from here on “effect”) in experiment [1] was “minimal effect”. In addition, in experiment [2], the “banding pattern and relative staining intensity of recombinant human neutrophil elastase” value is “less of an effect”.
Take `NCCS.O=C(O)C(O)C(O)C(=O)O` (stereo not drawn) [Cysteamine bitartrate, cysteamine bitartrate]: the results for the “Relative inhibition of NE activity (%)” value in experiment [1] (Cysteamine bitartrate concentration 20 μg/ml), in experiment [1] (Cysteamine bitartrate concentration 200 μg/ml) and in experiment [1] (Cysteamine bitartrate concentration 2000 μg/ml) were 12.526%, 30.689% and 86.639%, respectively. For the same molecule, in experiment [1], the “effect” value is on record as “effected human neutrophil elastase activity”. The “banding pattern and relative staining intensity of recombinant human neutrophil elastase” value in experiment [2] was “altered”.
As for `NCCS` [cysteamine free base, NH2—CH2—CH2—SH], the “effect” value in experiment [1] was “effected human neutrophil elastase activity”. Besides, the “banding pattern and relative staining intensity of recombinant human neutrophil elastase” value in experiment [2] is given as “altered”.
